Test results as given in paper PMC6120666 (The EMBO Journal, 2018).

How the values were obtained:
[1] = system: C57Bl6/J mice; test: Inhibition of MDP-elicited TNF release in vivo; conditions: 10 mg/kg i.p. 30 min before MDP 100 μg/mouse i.p., blood after 4 h
Method: Female 6‐ to 8‐week‐old C57Bl6/J mice (Jackson labs) were administered with the compounds i.p. 30 min prior to the i.p. injections of MDP as previously described (Nachbur et al, 2015). After 4 h, blood was collected by cardiac puncture. 100 μl of serum (diluted twofold) per animal was analyzed using anti‐mouse TNF ELISA (ThermoFisher Scientific).
All mouse experiments were approved by the Tufts University Committee on the Use and Care of Animals and performed according to accepted veterinary standards. Female 6-8-week-old C57Bl6/J mice (Jackson labs) were used for the experiments. Experiments were performed as previously described (Nachbur et al., 2015). Tested compounds were formulated in 6% Captisol formulation, pH 4.0 (100 μl/mouse, 10 mg/kg, Ligand Pharmaceuticals, San Diego, CA). MDP (Bachem, King of Prussia, PA) was dissolved in saline (100 μl/mouse, 100 μg/mouse). Mice were administered with the drugs i.p. 30 min prior to the i.p. injections of MDP. After 4 h, blood was collected by cardiac puncture.
100 μl of serum (diluted 2-fold) per animal was analyzed using anti-mouse TNF ELISA (ThermoFisher […]
Expression and purification of RIPK2 for X-ray crystallography […]

[2] = system: THP1Blue cells, TLR1/TLR2/TLR4; test: THP1Blue NF-κB-SEAP reporter assay, non-NOD agonists (Pam3CSK4, LPS, HKLM); format: cell-based, human; conditions: Pam3CSK4, LPS or HKLM
Method: For HEKBlue assay, cells were seeded into clear 96‐well plates at 7.5 × 10^3 cells/well and allowed to attach for 48 h. On the day of the experiment, media was changed to 100 μl of HEKBlue detection media (InvivoGen). Inhibitors were diluted and added in 0.5 μl DMSO 15 min prior to the addition of 1 ng/ml L18‐MDP (InvivoGen). After 8–9 h, absorbance at 620 nm was measured using Victor3V plate reader (Perkin Elmer, Waltham, MA). Values of media‐only wells were subtracted and %inhibition for each compound concentration relative to the DMSO/L18‐MDP‐treated controls was calculated. […] After induction, 20 μl of media was mixed with 180 μl of QUANTI‐Blue reagent (InvivoGen) and incubated at 37°C for 3–4 h, followed by absorbance measurement at 620 nm. IC50 values were calculated as described for HEKBlue assay. […]
For HEKBlue assay, cells were seeded into clear 96 well plates at 7.5x10^3 cells/well and allowed to attach for 48 h. […] After 8-9 h, absorbance at 620 nm was measured using Victor3V plate reader (Perkin Elmer, Waltham, MA). Values of media-only wells were subtracted and %inhibition for each compound concentration relative to the DMSO/L18-MDP-treated controls were calculated.
Inhibition values + StDev were fitted by non-linear regression using Prism software (GraphPad Software, La Jolla, CA) to calculate IC50 values. […] IC50 values were calculated as described for HEKBlue assay. […]

Row | SMILES | MDP-elicited serum TNF levels [1] | effect on NF-κB responses to non-NOD agonists [2]
1 | CCCS(=O)(=O)Nc1cc(-c2cc(-c3ccc(N4CCNCC4)cc3)cnc2N)cc(F)c1OC [CSLP37] | potently reduced | no detected effect
2 | CCCS(=O)(=O)Nc1cc(-c2cc(-c3ccc(N4CCNCC4)cc3)cnc2N)cc(OC)c1OC [CSLP43] | – | no detected effect
3 | Cc1ccc(-c2nn(C(C)(C)CNC(=O)c3ccncc3)c3ncnc(N)c23)cc1 [WEHI‐345, reference compound] | partial reduction | –
